Measurements published in PMC9772450, “Gel-forming antagonist provides a lasting effect on CGRP-induced vasodilation” (Frontiers in Pharmacology, 2022).
Read-outs that look alike come from different tables or passages of the source.

Key:
[1] = Viscosity of peptide solutions, Rheosense viscometer; format: physicochemical; details: N = 5 per group, result in words
Protocol: (§1) To evaluate the ability of peptides to form gels in situ, we initially determined this tendency qualitatively based on visual examinations of peptide solutions using a tube-tapping method. In addition, we quantitatively determined the viscosity of select peptide solutions using a viscometer (Rheosense Inc; http://www.rheosense.com/products/viscometers) ([Yan and Pochan, 2010]). In the visual assay, aliquots of peptides were dissolved in an aqueous solution (i.e., de-ionized water, saline, or 5% glucose solution). The peptide that dissolved instantly and stayed as a clear solution without obvious macroscopic change in viscosity at 20 min after mixing was considered soluble. If macroscopic particles of peptides remained in the solution at 20 min after mixing, the peptide was considered insoluble.
In addition, we quantitatively determined the viscosity of ADE651 and control peptides using the Rheosense viscometer. The peptide solution was loaded onto a Rheosense viscometer chip, and the sample was injected at a constant flow rate through the flow channel with multiple pressure sensors that monitor the pressure drop from the inlet to the outlet. Because the pressure drop is correlated with the shear stress at the boundary wall, the instrument determines the rheological properties based on the standard principles of rheometry ([Yan and Pochan, 2010]).

[2] = test system: CGRP-induced vasodilation; test: Dermal blood flow and vasodilation in rat hindlimbs, laser Doppler imaging; format: in vivo, Sprague-Dawley rats; details: rat hindlimb, ADE651 8 mg in 8% solution s.c. at 0 h
Protocol: Adult Sprague Dawley male rats (body weight 150–200 g) were randomly divided into treatment groups. Animals were individually housed during the experiment. After acclimation, rats were anesthetized and stabilized under 2.5% isoflurane, and were placed on a heating pad. Testing articles were prepared just before the experiment and individually administered subcutaneously into the hindlimbs. Human β-CGRP (LifeTein LLC, Hillsborough, NJ) was dissolved in a saline solution, and the antagonist solution was prepared in a 5% glucose solution. […] In this experiment, the antagonist gel solution was administered at 0 h as a liquid solution shortly after dissolution to prevent issues associated with the formation of semi-solid gel when the peptide is dissolved at high levels. […] The amount of blood flow was determined by laser Doppler imaging as described earlier ([Van der Schueren et al., 2007]; [Benschop et al., 2014]). The laser Doppler scan series of the hindlimbs began with two baseline scans and was followed by two scans each at select time points. Data are reported as percent change from the average baseline scans.

[3] = Release of ADE651 from gel solution in vivo (single-dose pharmacokinetics); set-up: species or system Sprague-Dawley rats; details: rat
Protocol: Single-dose pharmacokinetics of gel solution was investigated in male Sprague-Dawley rats. Rats received a peptide solution via the subcutaneous route. Blood samples were collected at pre-dose, 8 h, 1, 2, 4, and 8 days via a catheter that has been cannulated to the jugular vein (Charles River), and 0.5–1.0 ml of blood samples were collected at each time point. The animals were individually housed, plasma was obtained by centrifugation, and the peptide level in samples was determined by specific ADM2 EIAs (Catalogue no. EK-010–48, Phoenix Pharmaceuticals Inc.). It has a 0% cross-reactivity to ADM or CGRPs and has a sensitivity of 0.19 ng/ml. The Inter-assay variation was <15%.

[4] = Visual (tube-tapping) assay of gel-forming capability and solubility; format: physicochemical; set-up: key to Gel-forming ability: Y: can form a liquid gel; N: lacks the ability to efficiently form a liquid gel
Protocol: as §1

[5] = Passage of peptide molecules through Centricon filters; format: physicochemical; details: Centricon 30,000 MW cutoff, ADM2 EIA
Description: To evaluate whether gel-formation reduces the movement of peptide molecules in solution, we used the Centricon® filters (Millipore) to separate samples and the carriers based on their molecular mass. The sample is monomeric peptides, and the carrier is the self-assembled gel. One milligram aliquots of the peptides were first dissolved as 0.1% solution in 5% glucose, 0.1% solution in saline, 5% solution in 5% glucose, 10% solution in 5% glucose, and 20% solution in 5% glucose. Ten minutes later, the 5%, 10%, and 20% solutions were diluted to the 0.1% level. Aliquots of these solutions were sampled and dispensed into separate Centricon columns (30,000 MW cutoff), and the monomeric peptide and gel molecules were separated by centrifugation for 15 min (2000 x g). The level of peptide in the elutes was determined by specific EIAs (Phoenix Pharmaceuticals Inc.).

[6] = test system: capsaicin-induced dermal blood flow; details: ref Sinclair et al., 2010; cited from earlier work
Description: It is known that anti-CGRP gepants could occupy a binding site close to the interface of the N-terminal domains of CLR and RAMP1, and act by allosteric regulation ([Miller et al., 2010]). Although the gepants compounds have low IC50 values in receptor activation assays in vitro, it is well documented that gepants need high concentrations to bloc ...

[7] = administered as a 25% gel depot; ref Oberg and Lamberts, 2016; cited from earlier work
Description: Our screening of long-acting antagonists has originally focused on lipidated peptides because lipidation is known to increase the half-lives of various peptides by enabling them to be bound by albumin and other serum proteins, therefore reducing elimination by kidneys and degradation by serum proteases ([Drucker et al., 2010]). […] This finding is consistent with earlier studies of benzoylated and lipidated CGRP8-37 analogs which ha ...

[8] = cited from earlier work

Question: Which results are given for CCCCCCCCCCCCCCCC(=O)N[C@@H](CCCCN)C(=O)N[C@H](C(=O)N[C@@H](CCC(N)=O)C(=O)N[C@@H](CCCCN)C(=O)N[C@@H](CC(C)C)C(=O)N[C@@H](CO)C(=O)N[C@@H](C)C(=O)N1CCC[C@H]1C(=O)N[C@H](C(=O)N[C@@H](CC(=O)O)C(=O)N1CCC[C@H]1C(=O)N[C@@H](CO)C(=O)N[C@@H](CO)C(=O)N1CCC[C@H]1C(=O)N[C@@H](Cc1c[nH]cn1)C(=O)N[C@@H](CO)C(=O)N[C@@H](Cc1ccc(O)cc1)C(N)=O)C(C)C)C(C)C [ADE651]?
Answer: Viscosity of 0.5% solution in 5% glucose ([1]; compared with water, saline, 5% glucose, 0.5% and […] ADM): significantly higher than that of all other solutions evaluated; CGRP-induced increase in blood flow at the 5 h time point after ADE651 pretreatment ([2]; CGRP 1 mg/100 µL at 4 h, N = 3): 6%; Blood flow before the CGRP treatment (4 h time point) versus control animals ([2]; result in words): significantly lower; Tmax ([3]; male, Sprague-Dawley, sc, subcutaneous, 200 µL of 16% solution (32 mg), plasma, ADM2 EIA, three animals, read-out: Time of peak circulating level after administration): 8 h; Sustained presence in the circulation after subcutaneous injection ([3]; subcutaneous gel solution): > 1 week; Circulating level at 8 days after injection ([3]; subcutaneous, 16% solution (32 mg), plasma, ADM2 EIA, versus 0 h, result in words): significantly elevated; Appearance of solution in saline at 6–20% ([4]; visual): cloudy; Solubility in 5% glucose solution ([4]; visual): soluble from 0.1% to 20%; Solubility in saline ([4]; visual): low solubility; Gel-forming ability ([4]; visual inspection of 11% peptide solutions, tube-tapping, 20 min after mixing): Y; Concentration at which the peptide solution forms a gel (becomes viscous) ([4]; visual, 20 min after dissolution, vial tilted 90° and tapped): 6–20%; Reduction of peptide level in the elutes from 5%, 10% and 20% solution groups compared to the 0.1% solution group ([5]; 2000 x g 15 min, dissolved in 5% glucose, diluted to 0.1% after 10 min, triplicate samples): more than 98%; Peptide level in the elute from the 0.1% saline group versus 0.1% solution in 5% glucose group ([5]; N = 3 per group, result in words): significantly lower

Question: With O=C(N[C@@H]1CC[C@@H](c2cccc(F)c2F)CN(CC(F)(F)F)C1=O)N1CCC(n2c(=O)[nH]c3ncccc32)CC1 [telcagepant, reference compound] as the compound, how does the “EC (90) to inhibit the capsaicin-induced increase in dermal blood flow” value [6] read?
Answer: ~909 nM

Question: With Lanreotide as the compound, how does the “Period over which the gel releases the monomer” value [7] read?
Answer: a month

Question: Which “Resident time after subcutaneous injection” value ([8]; in vivo, sc) does the source give for adrenomedullin 2 [ADM2] here?
Answer: < 1 h

Question: For “adrenomedullin [ADM, reference compound]”, which “Viscosity of 0.5% and […] solutions in 5% glucose” value [1] is on record?
Answer: like that of 5% glucose solution

Question: What about the “Resident time after subcutaneous injection” value ([8]; short half-life, ref Nagata et al., 2022) of the same compound?
Answer: < 1 h
